Key:
intraocular pressure = experiment: Reducing effect of intraocular pressure after instillation into the rabbit eye (Experiment 1); type: in vivo, Japanese White rabbits; conditions: for Δ IOP, Reducing Effects of Intraocular Pressure: 50 µl instilled into left eye, vehicle-corrected, average of three samples; for Change in I.O.P.: area over 0 mmHg minus area under 0 mmHg of the IOP-time graph, 0-6 hr, minus = reduction
Experimental: For example, in a standard laboratory test the following data shown in Table 1 and 2 and in the accompanying Figure 1 were obtained. Average of the value of three samples are shown as each data. In the Figure reduction in intraocular pressure is plotted against time after administration for the compound of the invention and three comparison compounds.
Male Japanese White rabbits weighing about 3.0 kg were lightly held and the intraocular pressure was measured by Applanation Pneumatonograph after corneal anesthesia with instillation of 0.4% oxybuprocaine hydrochloride solution.
A 0.1% solution of a test compound was dissolved in vehicle which contains 2.5% conc. glycerol and 2.0% Polysorbate 80 in sterile purified water. The test solution at volume of 50 µl was instilled into left eye of each rabbit and the right eye remained untreated. As a control, the vehicle was instilled into left eye in a control group. Δ IOP (mmHg), which is an index of intraocular pressure-reducing effect, were calculated using below formula. IOP = (IOPt - IOP₀) - (IOPvt - IOPv0 ) [formula] IOPt : IOP at t hr after instillation of a test solution IOPvt : IOP at t hr after instillation of vehicle IOP₀ : IOP just before instillation of a test solution IOPv0 : IOP just before instillation of vehicle
Taking into consideration the continuous time of occurrence of the reduction effect and the intensity of the effect, the superiority of the compound of the present invention to the compared compound is clear. On the graph 1, the squares i.e. reducing effect of intraocular pressure, were calculated: That is, squares under 0 mmHg put minus and squares over 0 mmHg put plus, and the total squares are calculated and the values are shown in the Table 2.
On the graph of the intraocular pressure in course of time, area of the square (mmHg x hr) in elevation i.e. square over 0 mmHg and area of the square (mmHg x hr) in the reduction i.e. square under 0 mmHg were calculated and from the value of the former was subtracted the one of the latter. The minus-resulted value means reduction of intraocular pressure and the plus-resulted value means elevation of intraocular pressure.

[1] = Detection of compound and metabolite in eye tissue homogenates by liquid chromatography-mass spectrum after eye drop administration (Experiment 2); type: in vivo, Japanese White rabbits; conditions: 1 Hr after the last administration; for detection in the homogenates of aqueous humor, cornea or iris/ciliary body: eye drop solution of Example 1 three times every 5 mins in saccus conjunctivae
Experimental: Japanese White rabbits weighing 3.0 kg were used. Eye drop solution of Example 1 was administered three times every 5 mins in saccus conjunctivae. 1 Hr after the last administration, aqueous humor, cornea and iris/ciliary body were collected and homogenized respectively. The homogenates were measured by liquid chromatography-Mass spectrum.

[2] = 0 hr after administration (baseline), 0.1% solution
[3] = 1 hr after administration, 0.1% solution
[4] = 2 hr after administration, 0.1% solution
[5] = 4 hr after administration, 0.1% solution
[6] = 6 hr after administration, 0.1% solution

| SMILES | Δ IOP, Reducing Effects of Intraocular Pressure (intraocular pressure; [2]) [mm Hg] | initial elevation of the intraocular pressure (intraocular pressure; 0.1% solution) | time after administration at which the reducing effect appeared (intraocular pressure; 0.1% solution) [h] | Δ IOP, Reducing Effects of Intraocular Pressure (intraocular pressure; [3]) [mm Hg] | Δ IOP, Reducing Effects of Intraocular Pressure (intraocular pressure; [4]) [mm Hg] | Δ IOP, Reducing Effects of Intraocular Pressure (intraocular pressure; [5]) [mm Hg] | Δ IOP, Reducing Effects of Intraocular Pressure (intraocular pressure; [6]) [mm Hg] | Change in I.O.P. (intraocular pressure; 0.1% solution) [mmHg x hr] | continued elevation of the intraocular pressure (intraocular pressure; 0.1% solution) | hydrolysis on cornea ([1]; eye drop solution of Example 1) | detection in the homogenates of aqueous humor, cornea or iris/ciliary body [1] | maximum reduction of IOP (intraocular pressure; 0.1% solution) [mmHg] | bulbar and palpebral conjunctival hyperemia (intraocular pressure; after instillation of 0.1% solution) | activity (reduction of intraocular pressure) reached (intraocular pressure; at 2 hrs after administration, same level maintained till 6 hrs) [mmHg] |
| --- | --- | --- | --- | --- | --- | --- | --- | --- | --- | --- | --- | --- | --- | --- |
| CCCCC[C@H](O)/C=C/[C@@H]1[C@@H](C/C=C\CCCC(=O)OC(C)C)[C@@H](O)C[C@H]1O [Compared compound 2, PGF2α isopropyl ester] | 0 | extremely strong initial elevation | ~4 | 13.7 | 3.7 | -1 | -5.8 | 11.36 |  |  |  |  |  |  |
| CCCCC[C@H](O)/C=C/[C@@H]1[C@@H](C/C=C\CCCC(=O)OC(C)C)[C@@H](O)C[C@@H]1O [Compared compound 1, 11-epi-PGF2α isopropyl ester] | 0 | showed initial elevation | > 6 | 3.5 | 1.5 | 1.5 | 0.2 | 8.95 | continuous elevation till 6 hrs |  |  |  |  |  |
| CCCCC[C@H](O)CC[C@@H]1[C@@H](C/C=C\CCCC(=O)OC(C)C)[C@H](O)C[C@H]1O [Example 1, 13,14-dihydro-PGF2β isopropyl ester] | 0 | did not show initial elevation | 1 | -1.8 | -5.5 | -5.5 | -5.3 | -26.35 |  | hydrolysed into the compound of Example 2 | not detected | 5.5 | not observed | 5.5 |
| CCCCC[C@H](O)CC[C@@H]1[C@@H](C/C=C\CCCC(=O)O)[C@H](O)C[C@H]1O [Example 2, 13,14-dihydro-prostaglandin F2β] |  |  |  |  |  |  |  |  |  |  | detected |  |  |  |
| CCCCC[C@H](O)CC[C@@H]1[C@@H](C/C=C\CCCC(=O)OC)[C@@H](O)C[C@H]1O [Compared compound 3, 13,14-dihydro-PGF2α methyl ester] | 0 | showed initial elevation | ~4 | 3.3 | -1.3 | -0.7 | -4.3 | -4.35 |  |  |  |  |  |  |

Reference: patent EP0628545A1, “13,14-Dihydro-PGF2BETA and its isopropyl ester” (ONO PHARMACEUTICAL CO., LTD., priority 1993, dated 1994)
